Measurements: US20210198277A1, “AMINE-SUBSTITUTED ARYL OR HETEROARYL COMPOUNDS” (Epizyme, Inc., priority 2016, published 2021)
Where two headings read alike, the source gives them in different places.

Key:
human EHMT2 913-1193 = molecular target: T1, human EHMT2 913-1193 (Homo sapiens, UniProt Q96KQ7); test: EHMT2 enzyme assay on histone peptide substrate (EHMT2 PEP); format: biochemical; details: Table II; read-out: EHMT2 PEP (IC50 μM)
T1 construct: recombinant purified human EHMT2 913-1193, Viva; purchased Viva
T1 sequence (Q96KQ7 913-1193): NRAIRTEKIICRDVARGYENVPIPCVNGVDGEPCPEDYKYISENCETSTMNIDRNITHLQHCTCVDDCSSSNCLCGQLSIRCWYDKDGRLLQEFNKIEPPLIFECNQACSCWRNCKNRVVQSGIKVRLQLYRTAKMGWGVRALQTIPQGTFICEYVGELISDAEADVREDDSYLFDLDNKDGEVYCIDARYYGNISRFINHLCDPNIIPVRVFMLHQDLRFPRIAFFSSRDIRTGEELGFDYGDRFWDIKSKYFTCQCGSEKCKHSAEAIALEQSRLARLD
Summary of the method: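 Compounds (10-point, 3-fold dilutions, top 50 μM final, 2% DMSO) preincubated 30 min with 0.031 nM EHMT2 in 20 mM Bicine pH 7.5, 0.002% Tween 20, 0.005% gelatin, 1 mM TCEP. Biotinylated histone peptide methylated with ^3H-SAM 60 min at room temperature. Quenched with unlabeled SAM; product captured on streptavidin Flashplate, scintillation counted.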

EHMT1 = molecular target: T2, EHMT1 (Homo sapiens, UniProt Q9H9B1); test: EHMT1 enzyme assay on peptide substrate (EHMT1 PEP); format: biochemical; details: Table II
T2 sequence (Q9H9B1 1-1298): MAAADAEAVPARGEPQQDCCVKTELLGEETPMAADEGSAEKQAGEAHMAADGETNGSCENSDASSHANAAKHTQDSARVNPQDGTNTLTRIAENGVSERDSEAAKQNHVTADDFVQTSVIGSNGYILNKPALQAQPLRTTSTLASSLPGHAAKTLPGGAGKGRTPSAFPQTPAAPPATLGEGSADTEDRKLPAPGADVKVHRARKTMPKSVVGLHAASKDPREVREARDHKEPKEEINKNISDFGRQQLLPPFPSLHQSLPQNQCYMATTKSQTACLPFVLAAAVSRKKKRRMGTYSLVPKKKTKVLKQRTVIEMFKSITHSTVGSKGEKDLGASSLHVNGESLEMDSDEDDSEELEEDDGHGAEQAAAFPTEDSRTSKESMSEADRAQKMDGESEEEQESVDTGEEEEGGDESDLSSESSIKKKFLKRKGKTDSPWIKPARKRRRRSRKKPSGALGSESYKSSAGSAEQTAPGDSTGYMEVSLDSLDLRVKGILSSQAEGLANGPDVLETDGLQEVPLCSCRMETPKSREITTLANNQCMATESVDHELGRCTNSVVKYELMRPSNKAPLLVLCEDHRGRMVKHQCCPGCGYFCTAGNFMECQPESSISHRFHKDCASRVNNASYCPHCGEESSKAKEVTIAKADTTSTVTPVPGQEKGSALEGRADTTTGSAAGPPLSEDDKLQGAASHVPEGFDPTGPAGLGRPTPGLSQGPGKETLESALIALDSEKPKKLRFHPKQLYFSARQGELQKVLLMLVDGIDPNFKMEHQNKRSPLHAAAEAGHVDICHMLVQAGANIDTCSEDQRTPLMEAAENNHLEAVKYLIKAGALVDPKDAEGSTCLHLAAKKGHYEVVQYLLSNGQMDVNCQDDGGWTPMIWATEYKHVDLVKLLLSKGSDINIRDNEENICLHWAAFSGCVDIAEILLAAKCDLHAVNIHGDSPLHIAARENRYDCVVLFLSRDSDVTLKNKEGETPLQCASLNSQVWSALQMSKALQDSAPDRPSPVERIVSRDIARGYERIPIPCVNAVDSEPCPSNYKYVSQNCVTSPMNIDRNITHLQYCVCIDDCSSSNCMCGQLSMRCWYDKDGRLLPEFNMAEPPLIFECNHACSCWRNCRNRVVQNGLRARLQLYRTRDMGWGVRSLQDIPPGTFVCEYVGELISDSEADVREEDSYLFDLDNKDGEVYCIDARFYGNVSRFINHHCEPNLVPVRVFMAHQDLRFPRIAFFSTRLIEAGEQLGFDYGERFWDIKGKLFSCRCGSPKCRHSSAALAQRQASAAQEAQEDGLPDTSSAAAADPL

SMILES | IC50 (human EHMT2 913-1193) [µM] | IC50 (EHMT1; read-out: EHMT1 PEP (IC50 μM)) [µM] | IC50 (EHMT1; EHMT1 PEP (IC50 μM)) [µM]
COc1ccc(Nc2nccc(NCC3CCNCC3)n2)cc1OCCCN1CCOCC1 [Compound 16, N^2-(4-methoxy-3-(3-morpholinopropoxy)phenyl)-N^4-(piperidin-4-ylmethyl)pyrimidine-2,4-diamine] | 0.1 to 1 | 0.1 to 1 | 
COc1ccc(Nc2nccc(NCC3CCNCC3)n2)cc1CCNCC1CCCC1 [Compound 17, N^2-(3-(2-((cyclopentylmethyl)amino)ethyl)-4-methoxyphenyl)-N^4-(piperidin-4-ylmethyl)pyrimidine-2,4-diamine] | 0.1 to 1 | 0.1 to 1 | 
COc1ccc(Nc2nccc(NCC3CCN(C(C)=O)CC3)n2)cc1OCC1CCN(C)C1 (stereo not shown) [Compound 18, 1-(4-(((2-((4-methoxy-3-((1-methylpyrrolidin-3-yl)methoxy)phenyl)amino)pyrimidin-4-yl)amino)methyl)piperidin-1-yl)ethan-1-one] | 0.1 to 1 | 0.1 to 1 | 
COc1ccc(Nc2nc(C)cc(NCC3CCN(C(C)=O)CC3)n2)cc1OCCCN1CCCC1 [Compound 19, 1-(4-(((2-((4-methoxy-3-(3-(pyrrolidin-1-yl)propoxy)phenyl)amino)-6-methylpyrimidin-4-yl)amino)methyl)piperidin-1-yl)ethan-1-one] | < 0.1 | < 0.1 | 
COc1ccc(Nc2nccc(NC(C)C)n2)cc1OCCCN1CCCC1 [Compound 20] | < 0.1 | 0.1 to 1 | 
COc1ccc(Nc2nccc(NCc3ccccc3)n2)cc1OCCCN1CCCC1 [Compound 21] | < 0.1 | 0.1 to 1 | 
COCCCNc1ccnc(Nc2ccc(OC)c(OCCCN3CCCC3)c2)n1 [Compound 22] | < 0.1 | < 0.1 | 
COc1ccc(Nc2nccc(NCc3ccccn3)n2)cc1OCCCN1CCCC1 [Compound 23] | 0.1 to 1 | 0.1 to 1 | 
COc1ccc(Nc2nccc(NCc3ccncc3)n2)cc1OCCCN1CCCC1 [Compound 24] | < 0.1 | < 0.1 | 
COc1ccc(Nc2nccc(NCc3cccnc3)n2)cc1OCCCN1CCCC1 [Compound 25] | < 0.1 | < 0.1 | 
COc1cccc(CNc2ccnc(Nc3ccc(OC)c(OCCCN4CCCC4)c3)n2)c1 [Compound 26] | < 0.1 | 0.1 to 1 | 
COCCNc1ccnc(Nc2ccc(OC)c(OCCCN3CCCC3)c2)n1 [Compound 27] | 0.1 to 1 | 0.1 to 1 | 
COc1ccc(CNc2ccnc(Nc3ccc(OC)c(OCCCN4CCCC4)c3)n2)cc1 [Compound 28] | < 0.1 | < 0.1 | 
COc1ccc(Nc2nccc(NCC3CCN(C(C)C)CC3)n2)cc1OCCCN1CCCC1 [Compound 29] | < 0.1 | < 0.1 | 
COc1ccc(Nc2nccc(NCc3cnn(C)c3)n2)cc1OCCCN1CCCC1 [Compound 30] | < 0.1 | 0.1 to 1 | 
COc1ccc(Nc2nccc(NCc3nc4ccccc4[nH]3)n2)cc1OCCCN1CCCC1 [Compound 31] | 0.1 to 1 | 0.1 to 1 | 
COc1ccc(Nc2nccc(NCC3CCN(C)CC3)n2)cc1OCCCN1CCCC1 [Compound 32] | < 0.1 | < 0.1 | 
COc1ccc(Nc2nccc(NCC3CCN(c4ccccc4)CC3)n2)cc1OCCCN1CCCC1 [Compound 33] | < 0.1 | 0.1 to 1 | 
COc1ccc(Nc2nccc(NCC3CCCC3)n2)cc1OCCCN1CCCC1 [Compound 34] | < 0.1 | 0.1 to 1 | 
COc1ccc(Nc2cccc(NC3CCC3)n2)cc1OCCCN1CCCC1 [Compound 35] | 0.1 to 1 | 0.1 to 1 | 
COc1ccccc1CNc1ccnc(Nc2ccc(OC)c(OCCCN3CCCC3)c2)n1 [Compound 36] | < 0.1 | 0.1 to 1 | 
COc1ccc(Nc2nccc(NCCc3cccnc3)n2)cc1OCCCN1CCCC1 [Compound 37] | 0.1 to 1 | 0.1 to 1 | 

SMILES | IC50 (human EHMT2 913-1193) [µM] | IC50 (EHMT1; read-out: EHMT1 PEP (IC50 μM)) [µM] | IC50 (EHMT1; EHMT1 PEP (IC50 μM)) [µM]
COc1ccc(Nc2nccc(NCCNC(C)=O)n2)cc1OCCCN1CCCC1 [Compound 38] | < 0.1 | 0.1 to 1 | 
COc1ccc(Nc2nccc(NCCc3ccncc3)n2)cc1OCCCN1CCCC1 [Compound 39] | < 0.1 | < 0.1 | 
COc1ccc(Nc2nccc(NCCOc3ccccc3)n2)cc1OCCCN1CCCC1 [Compound 40] | 0.1 to 1 | 0.1 to 1 | 
CNC(=O)CNc1ccnc(Nc2ccc(OC)c(OCCCN3CCCC3)c2)n1 [Compound 41] | 0.1 to 1 | 0.1 to 1 | 
COc1ccc(Nc2nccc(NCC(C)(C)O)n2)cc1OCCCN1CCCC1 [Compound 42] | 0.1 to 1 | 0.1 to 1 | 
COc1ccc(Nc2nccc(NCCS(=O)(=O)N(C)C)n2)cc1OCCCN1CCCC1 [Compound 43] | 0.1 to 1 | 0.1 to 1 | 
COc1ccc(Nc2nccc(NCCCN(C)C(C)=O)n2)cc1OCCCN1CCCC1 [Compound 44] | 0.1 to 1 | 0.1 to 1 | 
COc1ccc(Nc2nccc(NCC3(O)CCCCC3)n2)cc1OCCCN1CCCC1 [Compound 45] | 0.1 to 1 | 0.1 to 1 | 
COc1ccc(Nc2nccc(NCc3cc[nH]n3)n2)cc1OCCCN1CCCC1 [Compound 46] | < 0.1 | 0.1 to 1 | 
COc1ccc(Nc2nccc(NCC3CCN(C(C)=O)CC3)n2)cc1OCCCN1CCCC1 [Compound 47, 1-(4-(((2-((4-methoxy-3-(3-(pyrrolidin-1-yl)propoxy)phenyl)amino)pyrimidin-4-yl)amino)methyl)piperidin-1-yl)ethan-1-one] | < 0.1 | < 0.1 | 
COc1ccc(Nc2nccc(NCC3CCN(C(C)=O)CC3)n2)cc1COCCN1CCCC1 [Compound 48] | 0.1 to 1 | 0.1 to 1 | 
COc1ccc(Nc2nccc(NCC3(O)CCOCC3)n2)cc1OCCCN1CCCC1 [Compound 49] | 0.1 to 1 | 0.1 to 1 | 
COc1ccc(Nc2nccc(NC3CCCCC3)n2)cc1OCCCN1CCCC1 [Compound 50] | 0.1 to 1 | 0.1 to 1 | 
CNc1cc(C)nc(Nc2ccc(OC)c(OCCCN3CCCC3)c2)n1 [Compound 205, N^2-(4-methoxy-3-(3-(pyrrolidin-1-yl)propoxy)phenyl)-N^4,6-dimethylpyrimidine-2,4-diamine] | < 0.1 |  | < 0.1
CNc1cc(Nc2ccc(OC)c(OCCCN3CCCC3)c2)ccn1 [Compound 206] | 0.1 to 1 | 0.1 to 1 | 
CNc1ccnc(Nc2cccc(OCCCN3CCCC3)c2)n1 [Compound 207, N^4-methyl-N^2-(3-(3-(pyrrolidin-1-yl)propoxy)phenyl)pyrimidine-2,4-diamine] | 1 to 10 | 1 to 10 | 
CNc1nc(C)cc(Nc2ccc(OC)c(OCCCN3CCCC3)c2)n1 [Compound 208] | 0.1 to 1 | 0.1 to 1 | 
CNc1ccnc(Nc2ccc(OC)c(OCCCN3CCCC3)c2)c1 [Compound 209, N^2-(4-methoxy-3-(3-(pyrrolidin-1-yl)propoxy)phenyl)-N^4-methylpyridine-2,4-diamine] | 0.1 to 1 | 0.1 to 1 | 
CNc1ccnc(Nc2ccc(OC)c(OCCCN3CCOCC3)c2)n1 [Compound 210] | 1 to 10 | 1 to 10 | 
COc1ccc(Nc2nccc(-n3nc(C)cc3C)n2)cc1OCCCN1CCCC1 [Compound 214] | > 10 | > 10 | 
CNCc1cnc(Nc2ccc(OC)c(OCCCN3CCCC3)c2)nc1 [Compound 215] | > 10 | > 10 | 
COc1ccc(Nc2ccnc(NCC3CCN(C(C)=O)CC3)n2)cc1OCCCN1CCCC1 [Compound 216] | 0.1 to 1 | 0.1 to 1 | 
